Test results reported in patent publication US9029389B2 (Institut Pasteur Korea, priority 2011, dated 2015).

Molecular target: T1, Human 5-lipoxygenase (Homo sapiens, UniProt P09917)
T1 construct: purchased Cayman 60402; host or cells: insect cells
T1 sequence (P09917 1-674): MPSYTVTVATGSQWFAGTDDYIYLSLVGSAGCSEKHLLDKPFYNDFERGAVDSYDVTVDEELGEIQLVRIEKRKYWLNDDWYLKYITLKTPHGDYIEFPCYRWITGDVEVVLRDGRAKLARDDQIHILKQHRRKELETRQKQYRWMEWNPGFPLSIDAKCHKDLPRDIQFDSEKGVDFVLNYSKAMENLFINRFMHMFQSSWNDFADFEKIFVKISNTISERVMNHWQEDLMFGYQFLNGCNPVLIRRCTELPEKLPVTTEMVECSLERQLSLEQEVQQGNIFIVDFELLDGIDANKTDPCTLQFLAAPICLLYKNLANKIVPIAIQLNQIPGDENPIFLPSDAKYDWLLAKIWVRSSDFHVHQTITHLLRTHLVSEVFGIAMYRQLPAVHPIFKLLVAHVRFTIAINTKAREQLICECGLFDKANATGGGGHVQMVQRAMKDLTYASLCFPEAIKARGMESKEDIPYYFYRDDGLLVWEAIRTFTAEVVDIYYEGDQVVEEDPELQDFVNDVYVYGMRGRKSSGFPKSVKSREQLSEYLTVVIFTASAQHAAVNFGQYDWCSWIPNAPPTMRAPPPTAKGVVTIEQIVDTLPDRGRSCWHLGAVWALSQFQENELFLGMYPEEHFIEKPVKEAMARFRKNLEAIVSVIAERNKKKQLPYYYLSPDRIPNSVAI
Assay: Activity of compounds against 5-LO enzyme (LTB4 measurement and/or fluorescence method)
Assay type: biochemical
Conditions: for inhibition at 10 µM: 5-LO, single concentration of 10 uM in duplicate; for IC50: 6 or 11 point dose response in duplicate
Description: The activity of compounds against 5-LO were determined by measuring LTB4 (leukotriene B4) levels and/or by a fluorescence method. Both approaches are outlined in more detail below;
Human 5-lipoxygenase (Cayman, Cat#60402) produced in insect cells was pre-incubated with compound for 15 min at RT in incubation buffer (50 mM Tris-Cl, pH 7.4, 2 mM CaCl2, 0.1 mM ATP, 1% DMSO). The enzymatic reaction was started by adding arachidonic acid to a final concentration of 3 uM. After 5 min of incubation at 37° C., the reaction was stopped by heatinactivation at 80° C. for 5 min. LTB4 levels were quantified by using LTB4 EIA kit (Cayman, Cat#520111) as instructed and/or LTB4 levelswere measured with LC/MS/MS using Quattro Premier™ XE tandem quadrupole mass spectrometer equipped with Acquity UPLC system (Waters, Milford, Mass.). The method was slightly modified as reported previously (Zweifel et al., 2008, Willey et al., 2008, Chappell et al, 2011). Briefly, chromatographic separation was carried out with Acquity UPLC BEH Shield RP18 Column (2.1 mm×50 mm, 1.7 μm particle size, Waters, Milford, Mass.). Sample injection volume was 10 μl, the column temperature was 35° C., the mobile phase A consisted of water with 0.1% formic acid and the mobile phase B consisted of acetonitrile with 0.1% formic acid. Flow rate was 0.4 mL/min and the gradient condition was as follows.
Relative quantification of LTB4 and LTB4-d4 (Internal Standard) was done using multi reaction monitoring (MRM) of the transitions of m/z 335→195 for LTB4, 339→197 for LTB4-d4 in electrospray ionization (ESI) negative mode. Desolvation temperature was 400° C., source temperature was 130° C. Capillary voltage, cone voltage, and collision voltage were 3.5 kV, 30V, and 20 eV, respectively. Nitrogen was used for desolvation (750 L/h) and cone (50 L/h) gas. Argon was used for collision gas (0.22 ml/min). The dwell time was 10 ms.
Besides the two methods quantifying LTB4 level, a fluorescence assay measuring 5-HpETE was introduced for high-throughput screening in a 384 well microplate format (Pufahl et al., 2007). For nonspecific ester cleavage of the acetate groups in H2DCFDA, the insect cell lysate expressing human 5-LO (Cayman Cat#60402) was incubated with H2DCFDA (50 mM Tris-Cl, pH 7.5, 2 mM CaCl2, 20 uM H2DCFDA, 500 mU 5-LO per reaction) for 5 minutes. Compound and enzyme mixture were pre-incubated for 5 minutes, and the enzymatic reaction was initiated by addition of ATP and arachidonic acid to a final concentration of 100 uM and 3 uM, respectively. After 5 minutes of incubation, the fluorescence was measured using Spectramax M5 (Molecular Device, Ex/Em=485 nm/530 nm). All steps were carried out at room temperature.
A total of 378 compounds were initially tested at a single concentration of 10 uM in duplicate with the results summarized in Table 1. From these 378 compounds, 53 compounds plus an additional 25 were selected for confirmation of activity by 6 or 11 point dose response in duplicate with the corresponding IC50 values outlined in Table 2.

| Compound | inhibition at 10 µM [%] | IC50 [µM] |
| --- | --- | --- |
| CCc1nc2ccc(Cl)cn2c1C(=O)NCc1ccc(N2CCCCC2)cc1 [compound 74, 6-Chloro-2-ethyl-N-(4-(piperidin-1-yl)benzyl)imidazo[1,2-a]pyridine-3-carboxamide] | < 40 | – |
| CCc1nc2ccc(Cl)cn2c1C(=O)NCc1ccc(-c2ccccc2C)cc1 [compound 75, 6-Chloro-2-ethyl-N-((2′-methylbiphenyl-4-yl)methyl)imidazo[1,2-a]pyridine-3-carboxamide] | 40 to 69 | 1 to 20 |
| CCc1nc2ccc(Cl)cn2c1C(=O)NCc1ccc(-c2cccc(C)c2)cc1 [compound 76, 6-Chloro-2-ethyl-N-((3′-methylbiphenyl-4-yl)methyl)imidazo[1,2-a]pyridine-3-carboxamide] | 40 to 69 | – |
| CCc1nc2ccc(Cl)cn2c1C(=O)NCc1ccc(-c2ccc(C)cc2)cc1 [compound 77, 6-Chloro-2-ethyl-N-((4′-methylbiphenyl-4-yl)methyl)imidazo[1,2-a]pyridine-3-carboxamide] | < 40 | – |
| CCc1nc2ccc(Cl)cn2c1C(=O)NCc1ccc(Cl)cc1 [compound 78, 6-Chloro-N-(4-chlorobenzyl)-2-ethylimidazo[1,2-a]pyridine-3-carboxamide] | < 40 | – |
| CCc1nc2ccc(Cl)cn2c1C(=O)NCc1ccc2ccccc2c1 [compound 79, 6-Chloro-2-ethyl-N-(naphthalen-2-ylmethyl)imidazo[1,2-a]pyridine-3-carboxamide] | < 40 | – |
| O=C(NCc1ccc(-c2ccccc2)cc1)c1c(C(F)(F)F)nc2ccc(Cl)cn12 [compound 80, N-(Biphenyl-4-ylmethyl)-6-chloro-2-(trifluoromethyl)imidazo[1,2-a]pyridine-3-carboxamide] | < 40 | – |
| CC(C)(C)c1ccc(CNC(=O)c2c(C(F)(F)F)nc3ccc(Cl)cn23)cc1 [compound 81, N-(4-tert-Butylbenzyl)-6-chloro-2-(trifluoromethyl)imidazo[1,2-a]pyridine-3-carboxamide] | < 40 | – |
| CCc1nc2cc(Cl)ccn2c1C(=O)NCc1ccc(-c2ccccc2Cl)cc1 [compound 82, 7-Chloro-N-((2′-chlorobiphenyl-4-yl)methyl)-2-ethylimidazo[1,2-a]pyridine-3-carboxamide] | 40 to 69 | – |
| CCc1nc2cc(Cl)ccn2c1C(=O)NCc1ccc(-c2ccc(Cl)cc2)cc1 [compound 83, 7-Chloro-N-((4′-chlorobiphenyl-4-yl)methyl)-2-ethyl-2-ethlimidazo[1,2-a]pyridine-3-carboxamide] | 40 to 69 | – |
| CCc1nc2cc(Cl)ccn2c1C(=O)NCc1ccc(Cl)cc1 [compound 84, 7-Chloro-N-(4-chlorobenzyl)-2-ethylimidazo[1,2-a]pyridine-3-carboxamide] | 40 to 69 | – |
| CCc1nc2cc(Cl)ccn2c1C(=O)NCc1ccc(-c2ccccc2C)cc1 [compound 85, 7-Chloro-2-ethyl-N-((2′-methylbiphenyl-4-yl)methyl)imidazo[1,2-a]pyridine-3-carboxamide] | > 69 | – |
| CCc1nc2cc(Cl)ccn2c1C(=O)NCc1ccc(-c2cccc(C)c2)cc1 [compound 86, 7-Chloro-2-ethyl-N-((3′-methylbiphenyl-4-yl)methyl)imidazo[1,2-a]pyridine-3-carboxamide] | > 69 | 1 to 20 |
| CCc1nc2cc(Cl)ccn2c1C(=O)NCc1ccc(-c2ccc(C)cc2)cc1 [compound 87, 7-Chloro-2-ethyl-N-((4′-methylbiphenyl-4-yl)methyl)imidazo[1,2-a]pyridine-3-carboxamide] | 40 to 69 | – |

Other lines, results leading:

| inhibition at 10 µM [%] | IC50 [µM] | Compound |
| --- | --- | --- |
| < 40 | – | CCc1nc2cc(Cl)ccn2c1C(=O)NCc1ccc(O)cc1 [compound 88, 7-Chloro-2-ethyl-N-(4-hydroxybenzyl)imidazo[1,2-a]pyridine-3-carboxamide] |
| < 40 | – | CCc1nc2cc(Cl)ccn2c1C(=O)NCc1ccc(N2CCCCC2)cc1 [compound 89, 7-Chloro-2-ethyl-N-(4-(piperidin-1-yl)benzyl)imidazo[1,2-a]pyridine-3-carboxamide] |
| 40 to 69 | – | CCc1nc2cc(Cl)ccn2c1C(=O)NCc1ccc2ccccc2c1 [compound 90, 7-Chloro-2-ethyl-N-(naphthalen-2-ylmethyl)imidazo[1,2-a]pyridine-3-carboxamide] |
| 40 to 69 | – | CCc1nc2cc(Cl)ccn2c1C(=O)NCc1ccc(-c2ccccc2)cc1 [compound 91, N-(Biphenyl-4-ylmethyl)-7-chloro-2-ethylimidazo[1,2-a]pyridine-3-carboxamide] |
| 40 to 69 | – | CCc1nc2cc(Cl)ccn2c1C(=O)NCc1ccc(C(C)(C)C)cc1 [compound 92, N-(4-tert-Butylbenzyl)-7-chloro-2-ethylimidazo[1,2-a]pyridine-3-carboxamide] |
| 40 to 69 | – | CCc1nc2cc(Cl)ccn2c1C(=O)NCc1ccc(Br)cc1 [compound 96, N-(4-Bromobenzyl)-7-chloro-2-ethylimidazo[1,2-a]pyridine-3-carboxamide] |
| < 40 | – | CCc1nc2ccc(Cl)cn2c1C(=O)NCc1ccc(-c2ccc(C#N)cc2)cc1 [compound 97, 6-Chloro-N-((4′-cyanobiphenyl-4-yl)methyl)-2-ethylimidazo[1,2-a]pyridine-3-carboxamide] |
| 40 to 69 | – | CCc1nc2ccc(Cl)cn2c1C(=O)NCc1ccc(-c2ccccc2C(F)(F)F)cc1 [compound 98, 6-Chloro-2-ethyl-N-((2′-(trifluoromethyl)biphenyl-4-yl)methyl)imidazo[1,2-a]pyridine-3-carboxamide] |
| < 40 | – | CCc1nc2ccc(Cl)cn2c1C(=O)NCc1ccc(-c2cccc(C#N)c2)cc1 [compound 99, 6-Chloro-N-((3′-cyanobiphenyl-4-yl)methyl)-2-ethylimidazo[1,2-a]pyridine-3-carboxamide] |
| > 69 | 1 to 20 | CCc1nc2ccc(Cl)cn2c1C(=O)NCc1ccc(-c2ccc(Cl)cc2C(F)(F)F)cc1 [compound 100, 6-Chloro-N-((4′-chloro-2′-(trifluoromethyl)biphenyl-4-yl)methyl)-2-ethylimidazo[1,2-a]pyridine-3-carboxamide] |
| 40 to 69 | – | CCc1nc2cc(Cl)ccn2c1C(=O)NCc1ccc(-c2cccc(C#N)c2)cc1 [compound 101, 7-Chloro-N-((3′-cyanobiphenyl-4-yl)methyl)-2-ethylimidazo[1,2-a]pyridine-3-carboxamide] |
| 40 to 69 | – | CCc1nc2cc(Cl)ccn2c1C(=O)NCc1ccc(-c2ccccc2C(F)(F)F)cc1 [compound 102, 7-Chloro-2-ethyl-N-((2′-(trifluoromethyl)biphenyl-4-yl)methyl)imidazo[1,2-a]pyridine-3-carboxamide] |
| > 69 | 1 to 20 | CCc1nc2cc(Cl)ccn2c1C(=O)NCc1ccc(-c2ccc(Cl)cc2C(F)(F)F)cc1 [compound 103, 7-Chloro-N-((4′-chloro-2′-(trifluoromethyl)biphenyl-4-yl)methyl)-2-ethylimidazo[1,2-a]pyridine-3-carboxamide] |
